According to ChEMBL document CHEMBL1201862, “PubChem BioAssay data set” (2004):
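Grown in 96-well plates, cells were treated for 48 hours with each compound at five concentrations. Insufficient inhibition: endpoint recorded as highest concentration tested. Abbreviation: GI50, concentration required for 50% inhibition of growth.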 Calls of active or inactive are those of the source. Rule as the data show it: active = GI50 up to about 1.1 µM and inactive = higher.

Experiments:
Assay in all cases: NCI-60 cell line screen, 48 h
[1] = test system: A549
[2] = test system: CCRF-CEM
[3] = test system: EKVX
[4] = test system: HCT-15
[5] = test system: HT-29
[6] = test system: Hs-578T
[7] = test system: K562
[8] = test system: M14
[9] = test system: MCF7
[10] = test system: MDA-MB-435
[11] = test system: MOLT-4
[12] = test system: OVCAR-5
[13] = test system: RXF 393
[14] = test system: SK-MEL-28
[15] = test system: SNB-19
[16] = test system: SR
[17] = test system: T47D
[18] = test system: TK-10
[19] = test system: UACC-62
[20] = test system: SNB-75

Row | Compound | GI50 [1] | GI50 [2] | GI50 [3] | GI50 [4] [µM] | GI50 [5] | GI50 [6] | GI50 [7] | GI50 [8] | GI50 [9] | GI50 [10] | GI50 [11] | GI50 [12] | GI50 [13] | GI50 [14] | GI50 [15] | GI50 [16] | GI50 [17] | GI50 [18] | GI50 [19] | GI50 [20]
1 | Cc1ccc2c(c1C)-c1c(ccc(C)c1C)C(=O)C2=O | 0.887 µM (active) | 0.238 µM (active) | 2.13 µM (inactive) | 0.292 | 2.36 µM (inactive) | 0.342 µM (active) | 0.266 µM (active) | 0.679 µM (active) | 0.21 µM (active) | 0.21 µM (active) | 0.2 µM (active) | 1.55 µM (inactive) | 0.337 µM (active) | 0.92 µM (active) | 0.881 µM (active) | 0.107 µM (active) | 1.81 µM (inactive) | 1.18 µM (inactive) | 0.356 µM (active) | –
2 | O=C1/C(=C/c2cccc3ccccc23)CCc2ccc([N+](=O)[O-])cc21 | 22.8 µM (inactive) | 60.8 µM (inactive) | 47 µM (inactive) | 17.9 | – | 9.57 µM (inactive) | 7.16 µM (inactive) | 24.4 µM (inactive) | 4.8 µM (inactive) | 6.71 µM (inactive) | > 100 µM (inactive) | > 100 µM (inactive) | 23.4 µM (inactive) | 16.6 µM (inactive) | 12.7 µM (inactive) | > 10 µM (inactive) | 21 µM (inactive) | 27.2 µM (inactive) | 13.3 µM (inactive) | 19.2 µM (inactive)
3 | Cc1nnc(N)nc1/C=C\c1ccc(Cl)cc1Cl | 39.2 µM (inactive) | 27.5 µM (inactive) | 39.5 µM (inactive) | 23.3 | 20.6 µM (inactive) | 29.2 µM (inactive) | 77.8 µM (inactive) | 29.6 µM (inactive) | 32.8 µM (inactive) | 33.5 µM (inactive) | 41.4 µM (inactive) | 42.5 µM (inactive) | 39.7 µM (inactive) | 55.5 µM (inactive) | 30.2 µM (inactive) | 46.6 µM (inactive) | 55.3 µM (inactive) | > 100 µM (inactive) | 30.8 µM (inactive) | –
4 | COc1cc(C2SC(C)C(=O)N2c2ccc(-c3csc(NS(=O)(=O)c4ccc(Cl)c(OC)c4)n3)cc2)ccc1O (stereo unspecified) | > 100 µM (inactive) | 14.6 µM (inactive) | – | 33.9 | > 100 µM (inactive) | 54.1 µM (inactive) | 34 µM (inactive) | > 100 µM (inactive) | 38.4 µM (inactive) | > 100 µM (inactive) | 25.1 µM (inactive) | > 100 µM (inactive) | > 100 µM (inactive) | > 100 µM (inactive) | > 100 µM (inactive) | 23.9 µM (inactive) | 40.5 µM (inactive) | > 100 µM (inactive) | 25.4 µM (inactive) | 19.7 µM (inactive)
5 | Cc1c(C)c2c(c(N)c1C#N)C(=O)N(NC(=O)c1ccccc1)C2=O | > 100 µM (inactive) | > 100 µM (inactive) | 76.7 µM (inactive) | > 100 | – | > 100 µM (inactive) | > 100 µM (inactive) | > 100 µM (inactive) | > 100 µM (inactive) | > 100 µM (inactive) | > 100 µM (inactive) | > 100 µM (inactive) | > 100 µM (inactive) | > 100 µM (inactive) | > 100 µM (inactive) | > 100 µM (inactive) | 24.8 µM (inactive) | > 100 µM (inactive) | > 100 µM (inactive) | > 100 µM (inactive)
6 | Cc1coc2c1CC1(C)C(CCC(O)C1C)C2 (stereo unspecified) | > 100 µM (inactive) | > 100 µM (inactive) | > 100 µM (inactive) | > 100 | > 100 µM (inactive) | > 100 µM (inactive) | > 100 µM (inactive) | > 100 µM (inactive) | > 100 µM (inactive) | > 100 µM (inactive) | > 100 µM (inactive) | > 100 µM (inactive) | > 100 µM (inactive) | – | > 100 µM (inactive) | > 100 µM (inactive) | > 100 µM (inactive) | > 100 µM (inactive) | > 100 µM (inactive) | > 100 µM (inactive)
7 | C/C=C(\C)C(=O)OC1CC(OC(C)=O)C2(C(=O)OC)COC3C2C1(C)C1C2(C(=O)OC)OCC1(C3O)C1(O)C3CC(C4(O)C=COC4O3)C1(C)O2 (stereo unspecified) | > 100 µM (inactive) | – | > 100 µM (inactive) | > 100 | > 100 µM (inactive) | > 100 µM (inactive) | > 100 µM (inactive) | > 100 µM (inactive) | > 100 µM (inactive) | 40.8 µM (inactive) | > 100 µM (inactive) | > 100 µM (inactive) | > 100 µM (inactive) | > 100 µM (inactive) | – | > 100 µM (inactive) | > 100 µM (inactive) | > 100 µM (inactive) | > 100 µM (inactive) | > 100 µM (inactive)
8 | COC(=O)c1ccccc1C1CN=NC12Cc1ccccc1C2=O (stereo unspecified) | > 100 µM (inactive) | > 100 µM (inactive) | 42.5 µM (inactive) | > 100 | > 100 µM (inactive) | 50.7 µM (inactive) | 68.5 µM (inactive) | 68.1 µM (inactive) | > 100 µM (inactive) | 42.6 µM (inactive) | 41.7 µM (inactive) | > 100 µM (inactive) | > 100 µM (inactive) | 77.6 µM (inactive) | > 100 µM (inactive) | > 100 µM (inactive) | 41.3 µM (inactive) | > 100 µM (inactive) | 42.1 µM (inactive) | 43.6 µM (inactive)
9 | CCOC(=O)C1=C(C)N(CC(C)C)C2(O)C(OC)CC(=O)C3C(=O)N(c4ccccc4)C(=O)C132 (stereo unspecified) | 43.4 µM (inactive) | 40.4 µM (inactive) | > 100 µM (inactive) | 23.3 | 20.7 µM (inactive) | 92.3 µM (inactive) | 31.9 µM (inactive) | 38.3 µM (inactive) | 35.5 µM (inactive) | 37 µM (inactive) | 15.4 µM (inactive) | > 100 µM (inactive) | 20.7 µM (inactive) | 23.8 µM (inactive) | 42.4 µM (inactive) | 21.4 µM (inactive) | 47 µM (inactive) | 77.1 µM (inactive) | 19.3 µM (inactive) | 20 µM (inactive)
10 | COc1ccc(-c2nc3cc(C(F)(F)F)ccc3n2CC2CCCN3CCCCC23)cc1 (stereo unspecified) | – | 13.6 µM (inactive) | 12.1 µM (inactive) | 15.7 | 13.3 µM (inactive) | 15.5 µM (inactive) | 14.8 µM (inactive) | 13 µM (inactive) | 13.2 µM (inactive) | 15.8 µM (inactive) | 12.7 µM (inactive) | 27.1 µM (inactive) | 16.6 µM (inactive) | 14.9 µM (inactive) | – | 13.3 µM (inactive) | 18.5 µM (inactive) | 16.6 µM (inactive) | – | 15.5 µM (inactive)
11 | COC(=O)[C@H]1CO[C@@H](C(C)(C)C)N1C(=O)N1C=CC(=O)C[C@@H]1C | > 100 µM (inactive) | > 100 µM (inactive) | > 100 µM (inactive) | – | > 100 µM (inactive) | > 100 µM (inactive) | > 100 µM (inactive) | – | > 100 µM (inactive) | > 100 µM (inactive) | – | > 100 µM (inactive) | > 100 µM (inactive) | > 100 µM (inactive) | – | > 100 µM (inactive) | > 100 µM (inactive) | > 100 µM (inactive) | > 100 µM (inactive) | > 100 µM (inactive)
12 | COC1CC(N)C(O)C(C)O1 (stereo unspecified) | – | > 100 µM (inactive) | > 100 µM (inactive) | > 100 | > 100 µM (inactive) | > 100 µM (inactive) | > 100 µM (inactive) | > 100 µM (inactive) | > 100 µM (inactive) | > 100 µM (inactive) | > 100 µM (inactive) | > 100 µM (inactive) | > 100 µM (inactive) | > 100 µM (inactive) | > 100 µM (inactive) | > 100 µM (inactive) | > 100 µM (inactive) | – | > 100 µM (inactive) | > 100 µM (inactive)
13 | O=C(Nc1cccc(NC(=O)C(=O)C2CCC3=C(Sc4ccccc4N3)C2=O)n1)C(=O)C1CCC2=C(Sc3ccccc3N2)C1=O (stereo unspecified) | > 100 µM (inactive) | 70.1 µM (inactive) | 85.1 µM (inactive) | 30.7 | 67.9 µM (inactive) | 53 µM (inactive) | 43.7 µM (inactive) | 86.3 µM (inactive) | 75.7 µM (inactive) | 85.9 µM (inactive) | 68.9 µM (inactive) | > 100 µM (inactive) | > 100 µM (inactive) | > 100 µM (inactive) | 73.6 µM (inactive) | 71.4 µM (inactive) | 50.4 µM (inactive) | – | 96.4 µM (inactive) | 9.68 µM (inactive)
14 | Cc1ccc(S(=O)(=O)NC(=O)Nc2cccc(S(N)(=O)=O)c2)cc1 | > 100 µM (inactive) | – | > 100 µM (inactive) | > 100 | > 100 µM (inactive) | > 100 µM (inactive) | > 100 µM (inactive) | > 100 µM (inactive) | > 100 µM (inactive) | > 100 µM (inactive) | > 100 µM (inactive) | > 100 µM (inactive) | > 100 µM (inactive) | > 100 µM (inactive) | > 100 µM (inactive) | > 100 µM (inactive) | > 100 µM (inactive) | > 100 µM (inactive) | > 100 µM (inactive) | > 100 µM (inactive)
15 | CN(C)CCOC1(CC2CCCCC2)CCC(C(C)(C)C)CC1 (stereo unspecified) | 5.56 µM (inactive) | 2 µM (inactive) | 8.07 µM (inactive) | 3.75 | 2.43 µM (inactive) | 6.78 µM (inactive) | 2.04 µM (inactive) | 2.14 µM (inactive) | 2.98 µM (inactive) | 4.74 µM (inactive) | 2.49 µM (inactive) | 5.53 µM (inactive) | 3.72 µM (inactive) | 4.68 µM (inactive) | 8.43 µM (inactive) | 1.69 µM (inactive) | 3.34 µM (inactive) | 12.8 µM (inactive) | 7.8 µM (inactive) | 6.81 µM (inactive)
